Measured values taken from US20230416692A1 (BOARD OF REGENTS, THE UNIVERSITY OF TEXAS SYSTEM, priority 2020, published 2023).
Values joined by “and” are separate entries in the source; they are usually repeats but may differ in a detail not shown here. Equal entries are not always repeated. Where two headings read alike, the source gives them in different places.

Assays:
plasma protein = conditions: data from literature; cited from earlier work
SARS-CoV-2-Nluc [1] = assay: microbe, parasite or virus in culture; format: cell-based
SARS-CoV-2-Nluc [2] = assay: microbe, parasite or virus in culture; format: cell-based; remark: listed apart in the source
[3] = human exposures in the clinics, cited from earlier work; for Cmax: read-out: Exposure (μM): Cmax
COVID-19 = conditions: human, in vivo; cited from earlier work
icSARS-CoV-2-mNG = format: cell-based, SARS-CoV-2
[4] = Severe acute respiratory syndrome coronavirus 2, 48 h
[5] = Severe acute respiratory syndrome coronavirus 2, Vero C1008
[6] = Severe acute respiratory syndrome coronavirus 2, Vero C1008, 48 h
[7] = Severe acute respiratory syndrome coronavirus 2

Compound: CC(C)CN(C[C@@H](O)[C@H](Cc1ccccc1)NC(=O)O[C@H]1CCOC1)S(=O)(=O)c1ccc(N)cc1 [Amprenavir]
- Plasma protein binding (%) (plasma protein): 90%
- CC50 (A549-hACE2 cells; human): > 50 µM
- activity against SARS-CoV-2-Nluc (in words) (SARS-CoV-2-Nluc [1]): inactive
- EC50 (SARS-CoV-2-Nluc [1]; [4]): > 10 µM

Compound: COC(=O)N[C@H](C(=O)N[C@@H](Cc1ccccc1)[C@@H](O)CN(Cc1ccc(-c2ccccn2)cc1)NC(=O)[C@@H](NC(=O)OC)C(C)(C)C)C(C)(C)C [Atazanavir]
- Plasma protein binding (%) (plasma protein): 86%
- CC50 (A549-hACE2 cells; human): > 50 µM
- activity against SARS-CoV-2-Nluc (in words) (SARS-CoV-2-Nluc [1]): inactive
- EC50 (SARS-CoV-2-Nluc [1]; [4]): > 10 µM

Compound: O=C(NCc1c(F)cc(F)cc1F)c1cn2c(c(O)c1=O)C(=O)N1[C@H]3CC[C@H](C3)O[C@@H]1C2 [Bictegravir]
- Plasma protein binding (%) (plasma protein): >99%
- CC50 (A549-hACE2 cells; human): > 50 µM
- EC50 (SARS-CoV-2-Nluc [1]; [4]): > 10 µM

Compound: CCN(CC)CCCC(C)Nc1ccnc2cc(Cl)ccc12 (stereo not drawn) [Chloroquine]
- CC50 (A549-hACE2 cells; human): > 50 µM
- EC50 (SARS-CoV-2-Nluc [2]; [5]): 3.52 µM
- EC50 (SARS-CoV-2-Nluc [2]; [6]): 3.52 µM
- EC50 (SARS-CoV-2-Nluc [1]; [7]): 1.32 µM
- EC50 (SARS-CoV-2-Nluc [1]; [4]): 1.32 µM

Compound: O=C1Nc2ccc(Cl)cc2[C@@](C#CC2CC2)(C(F)(F)F)O1 [Efavirenz]
- Plasma protein binding (%) (plasma protein): 99.5-99.8%
- CC50 (A549-hACE2 cells; human): 37.6 ± 10.7 µM
- SI (selectivity index) (SARS-CoV-2-Nluc [1]): <3.9
- EC50 (SARS-CoV-2-Nluc [1]; [4]): > 9.6 µM
- Exposure (μM): Cmin [3]: 5.6 µM
- Cmax [3]: 12.9 µM

Compound: Nc1nc(=O)n([C@@H]2CS[C@H](CO)O2)cc1F [Emtricitabine]
- Plasma protein binding (%) (plasma protein): 4%
- CC50 (A549-hACE2 cells; human): > 50 µM
- activity against SARS-CoV-2-Nluc (in words) (SARS-CoV-2-Nluc [1]): inactive
- EC50 (SARS-CoV-2-Nluc [1]; [4]): > 10 µM
- Cmax [3]: 7.9 µM

Compound: Cc1cccc(C)c1OCC(=O)N[C@@H](Cc1ccccc1)[C@@H](O)C[C@H](Cc1ccccc1)NC(=O)[C@H](C(C)C)N1CCCNC1=O [Lopinavir]
- Plasma protein binding (%) (plasma protein): 98-99%
- CC50 (A549-hACE2 cells; human): 31.5 ± 2.5 µM
- EC50 (SARS-CoV-2-Nluc [1]): 9 ± 0.42 µM
- EC50 (SARS-CoV-2-Nluc [1]; [4]): 8 to 9 µM

Compound: Cc1c(O)cccc1C(=O)N[C@@H](CSc1ccccc1)[C@H](O)CN1C[C@H]2CCCC[C@H]2C[C@H]1C(=O)NC(C)(C)C [Nelfinavir]
- Plasma protein binding (%) (plasma protein): >98%
- CC50 (A549-hACE2 cells; human): 12 ± 1.3 µM
- EC50 (SARS-CoV-2-Nluc [1]): 0.77 µM
- SI (selectivity index) (SARS-CoV-2-Nluc [1]): 16 and 15.7
- EC50 (SARS-CoV-2-Nluc [1]; [7]): 0.77 to 2.74 µM
- EC50 (SARS-CoV-2-Nluc [1]; [4]): 0.77 to 2.74 µM
- Exposure (μM): Cmin [3]: 2.6 µM
- Cmax [3]: 8.3 µM

Compound: CC1=CC[C@H](C(=O)N(c2cc(C#CC(C)(C)C)sc2C(=O)O)[C@H]2CC[C@](O)(CO[C@H]3CCOC3)CC2)CC1 [Radalbuvir]
- CC50 (A549-hACE2 cells; human): > 50 µM
- EC50 (SARS-CoV-2-Nluc [1]; [4]): > 10 µM

Compound: CCC(CC)COC(=O)[C@H](C)N[P@](=O)(OC[C@H]1O[C@@](C#N)(c2ccc3c(N)ncnn23)[C@H](O)[C@@H]1O)Oc1ccccc1 [Remdesivir]
- EC50 (SARS-CoV-2-Nluc [2]; [5]): 1.28 µM
- EC50 (SARS-CoV-2-Nluc [2]; [6]): 1.28 µM
- SI (selectivity index) (SARS-CoV-2-Nluc [1]): 284
- EC50 (SARS-CoV-2-Nluc [1]; [7]): 0.115 µM
- EC50 (SARS-CoV-2-Nluc [1]; [4]): 0.115 µM

Compound: NC(=O)c1ncn([C@@H]2O[C@H](CO)[C@@H](O)[C@H]2O)n1 [Ribavirin]
- CC50 (A549-hACE2 cells; human): > 50 µM
- EC50 (SARS-CoV-2-Nluc [1]; [4]): > 10 µM

Compound: Cc1cc(/C=C/C#N)cc(C)c1Nc1ccnc(Nc2ccc(C#N)cc2)n1 [Rilpivirine]
- Plasma protein binding (%) (plasma protein): 99.7%
- CC50 (A549-hACE2 cells; human): 14.6 ± 1.6 µM
- EC50 (SARS-CoV-2-Nluc [1]; [4]): 7.8 ± 1.04 µM
- Exposure (μM): Cmin [3]: 0.30 µM
- Cmax [3]: 0.83 µM

Compound: Nc1ncnc2c1ncn2[C@@H]1O[C@H](OCP(=O)(O)O)C=C1F [Rovafovir]
- Plasma protein binding (%) (plasma protein): 58%
- CC50 (A549-hACE2 cells): > 50 µM
- EC50 (SARS-CoV-2-Nluc [1]; read-out: EC50): > 10 µM

Compound: CCOC(=O)/C=C/[C@H](C[C@@H]1CCNC1=O)NC(=O)[C@@H](CC(=O)[C@@H](NC(=O)c1cc(C)on1)C(C)C)Cc1ccc(F)cc1 [Rupintrivir]
- CC50 (A549-hACE2 cells; human): > 50 µM
- EC50 (SARS-CoV-2-Nluc [1]): 1.87 ± 0.47 µM
- SI (selectivity index) (SARS-CoV-2-Nluc [1]): >26.7
- EC50 (SARS-CoV-2-Nluc [1]; [7]): 0.77 to 2.74 µM

Compound: CC(C)(C)NC(=O)[C@@H]1C[C@@H]2CCCC[C@@H]2CN1C[C@@H](O)[C@H](Cc1ccccc1)NC(=O)[C@H](CC(N)=O)NC(=O)c1ccc2ccccc2n1 [Saquinavir]
- Plasma protein binding (%) (plasma protein): 98%
- CC50 (A549-hACE2 cells; human): 35.1 ± 11.7 µM
- EC50 (SARS-CoV-2-Nluc [1]): 8.95 ± 0.31 µM
- SI (selectivity index) (SARS-CoV-2-Nluc [1]): 3.9
- EC50 (SARS-CoV-2-Nluc [1]; [4]): 8 to 9 µM
- Exposure (μM): Cmin [3]: 0.65 µM
- Cmax [3]: 3.7 µM

Compound: CC(C)OC(=O)[C@H](C)N[P@](=O)(OC[C@H]1O[C@@H](n2ccc(=O)[nH]c2=O)[C@](C)(F)[C@@H]1O)Oc1ccccc1 [Sofosbuvir]
- CC50 (A549-hACE2 cells; human): > 50 µM
- activity against SARS-CoV-2-Nluc (in words) (SARS-CoV-2-Nluc [1]): inactive
- EC50 (SARS-CoV-2-Nluc [1]; [4]): > 10 µM

Compound: Fc1ccccc1-c1nc2ccn(Cc3ccc(-c4ccc(C(F)(F)F)cc4C(F)(F)F)nn3)cc-2n1 [Tegobuvir]
- CC50 (A549-hACE2 cells; human): 17.9 ± 3.1 µM
- EC50 (SARS-CoV-2-Nluc [1]; [4]): > 10 µM

Compound: CC(C)OC(=O)[C@H](C)N[P@](=O)(CO[C@H](C)Cn1cnc2c(N)ncnc21)Oc1ccccc1 [Tenofovir alafenamide]
- Plasma protein binding (%) (plasma protein): 80%
- CC50 (A549-hACE2 cells; human): > 50 µM
- activity against SARS-CoV-2-Nluc (in words) (SARS-CoV-2-Nluc [1]): inactive
- EC50 (SARS-CoV-2-Nluc [1]; [4]): > 10 µM
- Cmax [3]: 0.4 µM

Compound: CCC[C@@]1(CCc2ccccc2)CC(O)=C([C@H](CC)c2cccc(NS(=O)(=O)c3ccc(C(F)(F)F)cn3)c2)C(=O)O1 [Tipranavir]
- Plasma protein binding (%) (plasma protein): 99.9%
- CC50 (A549-hACE2 cells; human): 28.4 ± 0.5 µM
- EC50 (SARS-CoV-2-Nluc [1]): 8.65 ± 0.16 µM
- SI (selectivity index) (SARS-CoV-2-Nluc [1]): 3.3
- EC50 (SARS-CoV-2-Nluc [1]; [4]): 8 to 9 µM
- Exposure (μM): Cmin [3]: 30.8 µM
- Cmax [3]: 130 µM

Compound: CC#CC(=O)N1CC[C@@H](n2c(=O)n(-c3ccc(Oc4ccccc4)cc3)c3c(N)ncnc32)C1 [Tirabrutinib]
- CC50 (A549-hACE2 cells; human): > 50 µM
- EC50 (SARS-CoV-2-Nluc [1]; [4]): > 10 µM

Compound: COC[C@H]1C[C@@H](c2ncc(-c3ccc4c(c3)COc3cc5c(ccc6nc([C@@H]7CC[C@H](C)N7C(=O)[C@@H](NC(=O)OC)C(C)C)[nH]c65)cc3-4)[nH]2)N(C(=O)[C@H](NC(=O)OC)c2ccccc2)C1 [Velpatasvir]
- CC50 (A549-hACE2 cells; human): > 50 µM
- activity against SARS-CoV-2-Nluc (in words) (SARS-CoV-2-Nluc [1]): inactive
- EC50 (SARS-CoV-2-Nluc [1]; [4]): > 10 µM

Compound: CC[C@H]1OC(=O)[C@H](C)[C@@H](O[C@H]2C[C@@](C)(OC)[C@@H](O)[C@H](C)O2)[C@H](C)[C@@H](O[C@@H]2O[C@H](C)C[C@H](N(C)C)[C@H]2O)[C@](C)(O)C[C@@H](C)CN(C)[C@H](C)[C@@H](O)[C@]1(C)O [azithromycin]
- fatality rate among hospitalized patients (in words) (COVID-19): not associated with significant differences in fatality rate

Compound: CCN(CCO)CCCC(C)Nc1ccnc2cc(Cl)ccc12 (stereo not drawn) [hydroxychloroquine]
- fatality rate among hospitalized patients (in words) (COVID-19): not associated with significant differences in fatality rate

Compound: IFN-α
- EC50 (concentration inhibiting 50% of viral replication) (icSARS-CoV-2-mNG): 101 u/ml
- mNG expression (visual) (icSARS-CoV-2-mNG): No mNG expression was visually observed
- mNG signal (icSARS-CoV-2-mNG): dose-dependent reduction of mNG signal

Compound: Voxilaprevir
- CC50 (A549-hACE2 cells): 16 ± 1.2 µM
- EC50 (SARS-CoV-2-Nluc [1]; read-out: EC50): > 10 µM
